Test results as given in patent publication US20160346249A1 (priority 2012, published 2016).

Experiments:
[1] = 26-week rat toxicity and toxicokinetic study; assay type: in vivo; details: for Tmax / AUC(0-t) / Cmax: po; for mean body weight lower than control: end of 4-week recovery; for mean cumulative body weight gain lower: end of treatment
Experimental: A portion of the animals from each group was maintained for an additional 4-week post-treatment recovery period.
For toxicology assessment, groups comprised thirty animals of each gender. Assessments included clinical observations, body weight, and food consumption measures noted periodically during the study. […] Ophthalmic examinations were performed during Weeks 1 and 13. […] In addition, the liver, vagina, and ovaries were identified as potential target tissues and were examined microscopically for all animals from all groups at the primary and recovery necropsies. […] 10 animals of each gender from each group were held to week 30 for a 4-week post-treatment recovery period.
For the toxicokinetic studies, there were ten animals of each gender in each group.

[2] = 13-week mouse toxicity and toxicokinetic study; details: in vivo; for AUC(0-t): AUC0-24
Experimental: For toxicology assessment ten mice of each gender were placed in each group.
Ophthalmic examinations were performed during Weeks −1 and 12.

[3] = In vitro metabolism in human hepatocytes; details: male, human, 4 h, 87 μM
Experimental: Cryopreserved human hepatocytes (male) that are prepared by XenoTech, LLC (Lenexa, Kans.), are thawed on the day of use and resuspended in Waymouth's incubation media. The enzymatic activity of hepatocytes is monitored using 7-ethoxycoumarin and 7-hydroxycoumarin as substrates. […] The incubations are carried out for 4 hours with 1×10^6 viable cells/ml. […] At 0 and 4 hour, cell suspensions are extracted using two volumes of ice cold methanol. After centrifugation, the extracts are stored at −20° C. until further sample processing. The solvent in the samples are dried under a stream of nitrogen, and resuspended in methanol:water (1:1) before analysis.
The extracts of the 4 hour incubation mixture are analyzed by liquid chromatography/electrospray ionization-mass spectrometry (LC/ESI-MS) in the positive and negative ion modes to screen for possible metabolites. HPLC Methods 1 and 2 are used to find potential metabolites, and the HPLC and mass spectrometry systems are described in Table 56. The same instrumentation and methods in HPLC Method 1 are used in HPLC Method 2 with the exception that the mobile phases and gradient are changed to 0.4% HCOOH in H2O for mobile A and CH3OH for mobile phase B. The mass spectrometer is LCQ™ Ion Trap Mass Spectrometer and is in either the positive or negative electrospray mode with the ion spray set at 4.5 kV. The capillary temperature is 250° C., the nitrogen sheath gas flow rate is ˜80 unit, the auxiliary nitrogen gas flow rate is 20 unit, and the collision gas is helium.

[4] = female, Crl:CD(SD)IGS BR, rat, in vivo, 25 mg/kg/day, females, 25 mg/kg/day, Day 0
[5] = female, Crl:CD(SD)IGS BR, rat, in vivo, 25 mg/kg/day, females, 25 mg/kg/day, Day 177
[6] = male, Crl:CD(SD)IGS BR, rat, in vivo, 8 mg/kg/day, males, 8 mg/kg/day, Day 177
[7] = male, Crl:CD(SD)IGS BR, rat, in vivo, 25 mg/kg/day, males, 25 mg/kg/day, Day 0
[8] = female, Crl:CD-1(ICR) BR, po, 10 mg/kg/day
[9] = female, Crl:CD-1(ICR) BR, po, 30 mg/kg/day
[10] = female, Crl:CD-1(ICR) BR, po, 100 mg/kg/day
[11] = male, Crl:CD-1(ICR) BR, po, 10 mg/kg/day
[12] = male, Crl:CD-1(ICR) BR, po, 30 mg/kg/day
[13] = male, Crl:CD-1(ICR) BR, po, 100 mg/kg/day

Question: With `Clc1ccc([C@]23CNC[C@H]2C3)cc1Cl` [amitifadine, (+)-1-(3,4-dichlorophenyl)-3-azabicyclo[3.1.0]hexane] as the molecule, how does the NOAEL at 26 weeks ([1]; both sexes, Crl:CD(SD)IGS BR, rat, in vivo, oral gavage, 26 weeks) read?
Answer: Its NOAEL at 26 weeks is 8 mg/kg/day.

Question: And the “exposure in female vs male rats” value ([1]; equivalent dosages)?
Answer: Its value is at most 2 fold.

Question: And the “liver metabolic enzyme induction” value ([1]; female rats, 25 mg/kg/day, 26 weeks)?
Answer: Its value is “inducer of CYP1A, CYP2B, CYP2E, CYP3A, and CYP4A”.

Question: And the Tmax ([1]; female, Crl:CD(SD)IGS BR, rat, in vivo, 8 mg/kg/day, females, 8 mg/kg/day, Day 0)?
Answer: Its Tmax is 1 h.

Question: What about the AUC(0-t) ([1]; female, Crl:CD(SD)IGS BR, rat, in vivo, 8 mg/kg/day, females, 8 mg/kg/day, Day 0, read-out: AUC0-24) of the same molecule?
Answer: The AUC(0-t) was 9.97 µg·h/mL.

Question: And the Tmax ([1]; female, Crl:CD(SD)IGS BR, rat, in vivo, 8 mg/kg/day, females, 8 mg/kg/day, Day 177)?
Answer: The Tmax was 2 h.

Question: What about the Cmax [1, 4] of the same molecule?
Answer: The Cmax was 2.63 µg/mL.

Question: What about the Tmax [1, 4] of the same molecule?
Answer: Its Tmax is 1 h.

Question: And the AUC(0-t) ([1]; female, Crl:CD(SD)IGS BR, rat, in vivo, 25 mg/kg/day, females, 25 mg/kg/day, Day 0, read-out: AUC0-24)?
Answer: The AUC(0-t) was 23.8 µg·h/mL.

Question: What about the Cmax [1, 5] of the same molecule?
Answer: Its Cmax is 3.5 µg/mL.

Question: And the Tmax [1, 5]?
Answer: The Tmax was 1 h.

Question: And the AUC(0-t) ([1]; female, Crl:CD(SD)IGS BR, rat, in vivo, 25 mg/kg/day, females, 25 mg/kg/day, Day 177, read-out: AUC0-24)?
Answer: The AUC(0-t) was 29.7 µg·h/mL.

Question: What about the Tmax ([1]; female, Crl:CD(SD)IGS BR, rat, in vivo, […], females, […], Day 0) of the same molecule?
Answer: Its Tmax is 2 h.

Question: What about the Tmax ([1]; female, Crl:CD(SD)IGS BR, rat, in vivo, […], females, […], Day 177) of the same molecule?
Answer: Its Tmax is 1 h.

Question: What about the AUC(0-t) ([1]; female, Crl:CD(SD)IGS BR, rat, plasma, 8 mg/kg/day, females, 8 mg/kg/day, Day 177, read-out: AUC0-24) of the same molecule?
Answer: Its AUC(0-t) is 11.1 µg·h/mL.

Question: What about the “mean ovary/oviduct weights higher” value ([1]; females, 25 mg/kg/day) of the same molecule?
Answer: Its value is 12%.

Question: What about the “mean body weight lower than control” value ([1]; females, 25 mg/kg/day) of the same molecule?
Answer: The value was 10%.

Question: What about the “mean cumulative body weight gain lower” value ([1]; females, 25 mg/kg/day) of the same molecule?
Answer: The value was 14%.

Question: What about the “liver metabolic enzyme induction” value ([1]; male rats, 25 mg/kg/day, 26 weeks) of the same molecule?
Answer: Its value is “inducer of CYP1A, CYP2B, and CYP2E”.

Question: And the Tmax ([1]; male, Crl:CD(SD)IGS BR, rat, in vivo, 8 mg/kg/day, males, 8 mg/kg/day, Day 0)?
Answer: The Tmax was 1 h.

Question: And the AUC(0-t) ([1]; male, Crl:CD(SD)IGS BR, rat, in vivo, 8 mg/kg/day, males, 8 mg/kg/day, Day 0, read-out: AUC0-24)?
Answer: The AUC(0-t) was 5.38 µg·h/mL.

Question: And the Cmax [1, 6]?
Answer: Its Cmax is 0.954 µg/mL.

Question: What about the Tmax [1, 6] of the same molecule?
Answer: Its Tmax is 1 h.

Question: And the Cmax [1, 7]?
Answer: Its Cmax is 2.6 µg/mL.

Question: And the Tmax [1, 7]?
Answer: Its Tmax is 1 h.

Question: And the AUC(0-t) ([1]; male, Crl:CD(SD)IGS BR, rat, in vivo, 25 mg/kg/day, males, 25 mg/kg/day, Day 0, read-out: AUC0-24)?
Answer: The AUC(0-t) was 18.1 µg·h/mL.

Question: And the Cmax ([1]; male, Crl:CD(SD)IGS BR, rat, in vivo, 25 mg/kg/day, males, 25 mg/kg/day, Day 177)?
Answer: Its Cmax is 2.6 µg/mL.

Question: And the AUC(0-t) ([1]; male, Crl:CD(SD)IGS BR, rat, in vivo, 25 mg/kg/day, males, 25 mg/kg/day, Day 177, read-out: AUC0-24)?
Answer: The AUC(0-t) was 17.8 µg·h/mL.

Question: What about the Tmax ([1]; male, Crl:CD(SD)IGS BR, rat, in vivo, […], males, […], Day 0) of the same molecule?
Answer: Its Tmax is 1 h.

Question: And the Tmax ([1]; male, Crl:CD(SD)IGS BR, rat, in vivo, […], males, […], Day 177)?
Answer: The Tmax was 1 h.

Question: What about the AUC(0-t) ([1]; male, Crl:CD(SD)IGS BR, rat, plasma, 8 mg/kg/day, males, 8 mg/kg/day, Day 177, read-out: AUC0-24) of the same molecule?
Answer: Its AUC(0-t) is 7.13 µg·h/mL.

Question: And the “mean testes weights higher” value ([1]; males, 25 mg/kg/day)?
Answer: Its value is 9.5%.

Question: What about the “mean body weight lower than control” value ([1]; males, 25 mg/kg/day) of the same molecule?
Answer: Its value is 12%.

Question: And the “mean cumulative body weight gain lower” value ([1]; males, 25 mg/kg/day)?
Answer: Its value is 18%.

Question: And the NOEL ([1]; oral gavage, 26 weeks)?
Answer: Its NOEL is 2.5 mg/kg/day.

Question: And the NOAEL at 13 weeks ([2]; both sexes, Crl:CD-1(ICR) BR, oral, 13 weeks)?
Answer: The NOAEL at 13 weeks was 30 mg/kg/day.

Question: And the MTD at 13 weeks ([2]; both sexes, Crl:CD-1(ICR) BR, po)?
Answer: The MTD at 13 weeks was 100 mg/kg/day.

Question: And the “anovulatory status (females affected)” value ([2]; female, Crl:CD-1(ICR) BR, 100 mg/kg/day, 13 weeks)?
Answer: Its value is 5/10.

Question: And the AUC0-24 [2, 8]?
Answer: Its AUC0-24 is 1.98 µg·h/mL.

Question: And the AUC(0-t) [2, 8]?
Answer: The AUC(0-t) was 2.54 µg·h/mL.

Question: And the Cmax [2, 8]?
Answer: The Cmax was 0.296 µg/mL.

Question: And the Tmax [2, 8]?
Answer: The Tmax was 1 h.

Question: What about the AUC0-24 [2, 9] of the same molecule?
Answer: Its AUC0-24 is 7.629 µg·h/mL.

Question: What about the AUC(0-t) [2, 9] of the same molecule?
Answer: The AUC(0-t) was 7.12 µg·h/mL.

Question: What about the Cmax [2, 9] of the same molecule?
Answer: The Cmax was 0.972 µg/mL.

Question: And the Tmax [2, 9]?
Answer: Its Tmax is 2 h.

Question: And the AUC0-24 [2, 10]?
Answer: The AUC0-24 was 17.431 µg·h/mL.

Question: What about the AUC(0-t) [2, 10] of the same molecule?
Answer: The AUC(0-t) was 20 µg·h/mL.

Question: What about the Cmax [2, 10] of the same molecule?
Answer: The Cmax was 2.45 µg/mL.

Question: And the Tmax [2, 10]?
Answer: Its Tmax is 1 h.

Question: And the ovary/oviduct weights lower ([2]; 100 mg/kg/day)?
Answer: The ovary/oviduct weights lower was 23-28%.

Question: And the AUC0-24 [2, 11]?
Answer: Its AUC0-24 is 2.141 µg·h/mL.

Question: What about the AUC(0-t) [2, 11] of the same molecule?
Answer: The AUC(0-t) was 2.05 µg·h/mL.

Question: And the Cmax [2, 11]?
Answer: The Cmax was 0.288 µg/mL.

Question: What about the Tmax [2, 11] of the same molecule?
Answer: Its Tmax is 1 h.

Question: What about the AUC0-24 [2, 12] of the same molecule?
Answer: The AUC0-24 was 6.659 µg·h/mL.

Question: And the AUC(0-t) [2, 12]?
Answer: The AUC(0-t) was 7.29 µg·h/mL.

Question: What about the Cmax [2, 12] of the same molecule?
Answer: The Cmax was 0.704 µg/mL.

Question: What about the Tmax [2, 12] of the same molecule?
Answer: Its Tmax is 1 h.

Question: What about the AUC0-24 [2, 13] of the same molecule?
Answer: The AUC0-24 was 28.952 µg·h/mL.

Question: What about the AUC(0-t) [2, 13] of the same molecule?
Answer: The AUC(0-t) was 24.1 µg·h/mL.

Question: What about the Cmax [2, 13] of the same molecule?
Answer: The Cmax was 2.85 µg/mL.

Question: What about the Tmax [2, 13] of the same molecule?
Answer: Its Tmax is 1 h.

Question: What about the “remains unchanged after 4 hour incubation” value ([3]; hepatocytes) of the same molecule?
Answer: Its value is 82.4%.

Question: With `O=C1NCC2(c3ccc(Cl)c(Cl)c3)CC12` (stereo not shown) [EB-10101, 5-(3,4-dichloro-phenyl)-3-aza-bicyclo[3.1.0]hexan-2-one] as the molecule, how does the “AUC0-24 of metabolite relative to parent drug” value ([1]; Day 0) read?
Answer: Its value is “approximately 7 fold”.

Question: What about the “AUC0-24 of metabolite relative to parent drug” value ([1]; Day 177) of the same molecule?
Answer: Its value is at most 14 fold.

Question: What about the AUC(0-t) ([1]; female, Crl:CD(SD)IGS BR, rat, plasma, 8 mg/kg/day, females, EB-1010 8 mg/kg/day, Day 177, read-out: AUC0-24 of metabolite) of the same molecule?
Answer: The AUC(0-t) was 88.1 µg·h/mL.

Question: What about the AUC(0-t) ([1]; male, Crl:CD(SD)IGS BR, rat, plasma, 8 mg/kg/day, males, EB-1010 8 mg/kg/day, Day 177, read-out: AUC0-24 of metabolite) of the same molecule?
Answer: The AUC(0-t) was 80.4 µg·h/mL.

Question: And the “exposure to metabolite relative to parent drug” value ([2]; Crl:CD-1(ICR) BR, 0 day)?
Answer: The value was 2-5 fold.

Question: What about the “share of the metabolites formed” value [3] of the same molecule?
Answer: Its value is “about 63%”.
